Data: article PMC6024679 (Toxins, 2018)
Values joined by “and” are separate entries in the source; they are usually repeats but may differ in a detail not shown here. Identical values can stand only once. Like-named read-outs stand apart in the source and are kept apart here.

Legend:
mammalian NaVs = conditions: cited from earlier work
Source text: (§1) The first insect NaV gene (para) was cloned from Drosophila melanogaster. After that, lots of studies had cloned NaV genes from many arthropod pests and disease vectors, and most insects have only one para-like NaV gene. […] We speculated that μ-SPRTX-Hv2 is also a broad-spectrum insecticide but it is yet to be experimentally determined. In Blattella ger ...

NaV1.7 channel = conditions: physiological depolarizing voltages; cited from earlier work
Source text: as §1

cockroaches [1] = conditions: cited from earlier work
meal beetles = conditions: cited from earlier work
[2] = test system: PaNaV1 and BgNaV1 channels; conditions: β-Diguetoxin-Dc1a; cited from earlier work
DUM HVA CaVs = test: Whole-cell patch-clamp of HVA calcium channels in cockroach DUM neurons; assay type: cell-based
mouse = conditions: 7.0 μg/g (1.7 nmol/g), intraperitoneal, single dose, n = 3
cockroaches [3] = test: Lethal effect in cockroaches after injection of toxin, LD50 at 24 h; assay type: in vivo, cockroach
Protocol: Fifty-six cockroaches were randomly divided into eight groups (n = 7 in each group). Seven groups were used as experimental groups, to which 10 μL toxin solution (dissolved in saline) was injected between the fourth and fifth sternite, at single dose of 0.29, 0.53, 0.96, 1.74, 3.09, 5.56, or 10 nmol/g for each group. The eighth group was used as experimental control and was injected with 10 μL saline. Lethal effect was observed 24 h after injection. The LD50 value was determined by using the improved Karber’s method. For testing the toxicity of μ-SPRTX-Hv2 to mouse, toxin at a single dose of 1.7 nmol/g (7.0 µg/g) was injected intraperitoneally.

[4] = test system: NaVs in cockroach DUM neurons; test: Whole-cell patch-clamp of voltage-gated sodium channels in cockroach DUM neurons; assay type: cell-based
[5] = test system: tetrodotoxin sensitive NaVs (TTX-S NaVs) in rat DRG neurons; assay type: cell-based
[6] = test system: HVA CaVs in rat DRG neurons; test: Whole-cell patch-clamp of HVA CaVs in rat DRG neurons; assay type: cell-based
hNaV1.7 = test: Whole-cell patch-clamp of NaV1.7 in HEK293T cells; assay type: cell-based, human (h, as printed in hNaV1.7)
rNaV1.8 = test: Whole-cell patch-clamp of NaV1.8 in ND7/23 cells; assay type: cell-based, rat (r, as printed in rNaV1.8)
hNaV1.5 = test: Whole-cell patch-clamp of NaV1.5 in HEK293T cells; assay type: cell-based, human (h, as printed in hNaV1.5)
insect CaVs = conditions: ω-hexatoxin-Hv1a; cited from earlier work

For NC1=N[C@H](O)[C@H]2[C@H]3O[C@]4(O)O[C@@H]([C@@H](O)[C@@]2(N1)[C@@H]4O)[C@]3(O)CO [TTX, tetrodotoxin], the “mode of action on mammalian NaVs” value (mammalian NaVs) is given as “physically blocking the ion conducting pathway”.
For HWTX-IV: toxin acting on NaV1.7 channel, the “effect on steady-state activation curve” value (NaV1.7 channel) is given as “did not change the steady-state activation curve”.
For brachyin, the LD50 (cockroaches [1]) is given as 1.02 pm/g of body weight and the LD50 (meal beetles) is given as 1.55 pm/g of body weight.
For β-Diguetoxin-Dc1a, the “selectivity between PaNaV1 and BgNaV1” value [2] is given as “showed selectivity between the highly conserved PaNaV1 and BgNaV1 channels”.
In the case of μ-sparatoxin-Hv2 [μ-SPRTX-Hv2], the “effect on DUM HVA CaVs currents” value (DUM HVA CaVs) is reported as “did not affect the currents of DUM HVA CaVs”, the “envenomation symptoms in mouse” value (mouse) is reported as “no obvious envenomation symptoms were observed” and the LD50 (cockroaches [3]; cockroaches, calculated) is reported as 11.7 μg/g of body weight. For the same compound, the LD50 (cockroaches [3]; in vivo, ip) was 3.6 nmol/g of body weight, the LD50 (cockroaches [3]; synthetic toxin, cockroaches, 10 μL in saline injected between fourth and fifth sternite, single dose 0.29-10 nmol/g, n = 7 per group, 24 h after injection, improved Karber's method) was 2.8 nmol/g of body weight and the IC50 [4] was 834 nM and 718 nM. For the same compound, the “Ka (slope factor, steady-state activation) after toxin treatment” value [4] was 4.4 ± 0.4 mV, the “Kh (slope factor, steady-state inactivation) after toxin treatment” value [4] was −5.4 ± 0.3 mV and the “Va (steady-state activation) after toxin treatment” value [4] was −23.0 ± 3.7 mV. The “Vh (steady-state inactivation) after toxin treatment” value [4] was −38.7 ± 4.1 mV, the “association time constant (τon)” value [4] was 13.8 ± 1.7 s and the “block of currents across voltages (I–V relationship)” value [4] was “blocked the currents at all voltage tested”. For the same compound, the “effect on initial activation voltage, peak current voltage and reversal voltage” value [4] was “did not affect the initial activation voltage, the peak current voltage and the reversal voltage”, the “reversibility of block on washing by bath solution perfusion” value [4] was “could not be washed off by bath solution perfusion” and the “effect on TTX-S NaVs currents in rat DRG neurons” value [5] was “did not affect the currents”. For the same compound, the “effect on HVA CaVs currents in rat DRG neurons” value [6] was “did not affect the currents”, the “effect on NaV1.7 currents” value (hNaV1.7) was “did not affect” and the “effect on NaV1.8 currents” value (rNaV1.8) was “did not affect”. The “effect on NaV1.5 currents” value (hNaV1.5) was “did not affect”.
For ω-hexatoxin-Hv1a, the “effect on insect CaVs” value (insect CaVs) is listed as “acting on the insect CaVs”.
